Laboratory results: US20240327506A1, “METHODS AND COMPOSITION FOR THE SELECTIVE ENHANCEMENT OF ADOPTIVE CELL THERAPY” (MaineHealth, priority 2023, published 2024)

What was measured:
ID8-VEGF ovarian tumors = test: T-cell levels in malignant ascites fluid of mice with ID8-VEGF ovarian tumors, flow cytometry; format: in vivo, C57BL/6 mice; conditions: compared to control antibody
Procedure: Data bars represent the mean percentage of CD8+ T-cells (+SE from 4 mice per condition) in the ascites fluid from each experimental group.
Mice (C57BL/6) were injected intraperitoneally with ID8-VEGF ovarian tumor cells. ID8-VEGF tumor cells were allowed to grow within the peritoneal cavity of mice for 4-weeks to allow formation of malignant ascites fluid and solid tumors. Beginning at 4 weeks, mice were injected subcutaneously with 100 μg per mouse 2× per week with non-specific control antibody (Ab Cont) or anti-HU177 antibody (Anti-HU177). At 12 weeks, mice were sacrificed and malignant ascites fluid was collected. The relative levels of CD4+ Treg-cells within the malignant ascites fluid was quantified by flow cytometry. Data bars represent the mean percentage of CD4+ Treg cells+SE from 4 mice per condition in the ascites fluid from each experimental group.
Given the surprising results that the Mab HU177 enhanced T-cell migration on denatured collagen type-IV, we next evaluated if administration of HU-177 antibody could increase the levels of CD8+ T-cells found in malignant ascites fluid. […] The relative levels of CD8+ T-cells within the malignant ascites fluid was quantified by flow cytometry, for 4 mice per experimental condition. […]

Hut78 T-cells = test: Transwell migration of Hut78 T-cells through collagen type-IV; format: cell-based, human
Procedure: FIGS. 4A-4H. […] Briefly, membranes from transwell migration chambers were coated with either native collagen type-IV or denatured collagen type-IV. T-cell variants were incubated with non-specific control peptide CP, or the RGDKGE (SEQ ID NO: 1)-containing collagen peptide (P2) and seed on the coated transwell membranes. T-cells were allowed to migrate in the presence or absence of SDF-1 added to the lower chamber for approximately 1.5 hours. Cell migration was quantified by counting the number of crystal violet stained cells that had migrated through to the underside of the coated membrane. FIG. 4A. Jurkat T-cell migration through denatured collagen type-IV in the presence of non-specific control peptide CP or RGDKGE (SEQ ID NO: 1)-containing collagen peptide P2 with SDF-1. FIG. 4B. Jurkat T-cell migration through native collagen type-IV in the presence of non-specific control peptide CP or RGDKGE (SEQ ID NO: 1)-containing collagen peptide P2 with SDF-1. FIG. 4C. Cem/C1 T-cell migration through denatured collagen type-IV in the presence of non-specific control peptide CP or RGDKGE (SEQ ID NO: 1)-containing collagen peptide P2 with SDF-1. FIG. 4D. Cem/C1 T-cell migration through native collagen type-IV in the presence of non-specific control peptide CP or RGDKGE (SEQ ID NO: 1)-containing collagen peptide P2. FIG. 4E. Hut78 T-cell migration through denatured collagen type-IV in the presence of non-specific control peptide CP or RGDKGE (SEQ ID NO: 1)-containing collagen peptide P2. FIG. 4F. Hut78 T-cell migration through native collagen type-IV in the presence of non-specific control peptide CP or RGDKGE (SEQ ID NO: 1)-containing collagen peptide P2. FIG. 4G Primary CD8+ T-cell migration through denatured collagen type-IV in the presence of non-specific control peptide CP or RGDKGE (SEQ ID NO: 1)-containing collagen peptide P2 with SDF-1. FIG. 4H. CD8+ T-cell migration through native collagen type-IV in the presence of non-specific control peptide CP or RGDKGE (SEQ ID NO: 1)-containing collagen peptide P2 with SDF-1. Data bars indicate the mean cell migration±S.E. *P<0.05.
Given our new observations, and the fact that many tumor types as well as immunosuppressive macrophages can secrete the small soluble RGDKGE (SEQ ID NO: 1) collagen peptide, we next sought to determine whether this soluble collagen peptide could impact T-cell migration through denatured collagen type-IV, a critical ECM component shown to be selectively enriched in tumor vessels. Briefly, membranes from transwell migration chambers were coated with either native collagen type-IV or denatured collagen type-IV. […] Cell migration was quantified following staining cells with crystal violet (6,8). […]

activated fibroblasts = conditions: cited from earlier work
tumor = conditions: combination with anti-PDL-1 antibody; cited from earlier work
αvβ3 = αvβ3 (Homo sapiens, UniProt P05106+P06756); conditions: cited from earlier work
αvβ3, sequence (P06756 31-889 limits assumed): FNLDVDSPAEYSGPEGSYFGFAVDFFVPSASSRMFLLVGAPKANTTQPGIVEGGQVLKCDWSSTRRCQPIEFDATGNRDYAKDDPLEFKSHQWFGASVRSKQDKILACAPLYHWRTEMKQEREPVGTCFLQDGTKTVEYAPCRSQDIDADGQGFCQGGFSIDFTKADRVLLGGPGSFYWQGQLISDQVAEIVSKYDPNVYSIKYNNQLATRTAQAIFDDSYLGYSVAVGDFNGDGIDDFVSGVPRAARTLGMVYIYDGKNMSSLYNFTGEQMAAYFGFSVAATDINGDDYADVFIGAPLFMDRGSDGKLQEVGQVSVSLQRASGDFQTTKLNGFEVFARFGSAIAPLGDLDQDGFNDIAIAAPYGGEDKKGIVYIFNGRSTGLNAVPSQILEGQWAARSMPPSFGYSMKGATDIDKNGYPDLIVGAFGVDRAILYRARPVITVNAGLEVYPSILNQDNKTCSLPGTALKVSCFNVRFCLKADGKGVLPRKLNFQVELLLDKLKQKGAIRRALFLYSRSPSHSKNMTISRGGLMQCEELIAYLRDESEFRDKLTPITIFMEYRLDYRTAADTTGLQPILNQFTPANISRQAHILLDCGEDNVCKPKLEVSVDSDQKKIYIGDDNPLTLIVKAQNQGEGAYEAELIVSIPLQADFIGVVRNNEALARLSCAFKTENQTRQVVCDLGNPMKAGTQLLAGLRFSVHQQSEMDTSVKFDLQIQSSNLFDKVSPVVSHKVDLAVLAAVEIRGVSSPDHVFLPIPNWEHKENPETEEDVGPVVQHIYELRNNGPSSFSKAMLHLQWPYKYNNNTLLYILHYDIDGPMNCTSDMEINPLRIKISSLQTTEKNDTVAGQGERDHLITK
αvβ3, sequence (P06756 891-1048 partner limits assumed): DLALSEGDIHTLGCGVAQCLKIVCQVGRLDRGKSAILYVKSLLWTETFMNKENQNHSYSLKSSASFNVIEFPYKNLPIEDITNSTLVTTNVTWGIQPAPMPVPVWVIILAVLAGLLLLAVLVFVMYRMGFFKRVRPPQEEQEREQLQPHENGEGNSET
αvβ3, sequence (P05106 27-788): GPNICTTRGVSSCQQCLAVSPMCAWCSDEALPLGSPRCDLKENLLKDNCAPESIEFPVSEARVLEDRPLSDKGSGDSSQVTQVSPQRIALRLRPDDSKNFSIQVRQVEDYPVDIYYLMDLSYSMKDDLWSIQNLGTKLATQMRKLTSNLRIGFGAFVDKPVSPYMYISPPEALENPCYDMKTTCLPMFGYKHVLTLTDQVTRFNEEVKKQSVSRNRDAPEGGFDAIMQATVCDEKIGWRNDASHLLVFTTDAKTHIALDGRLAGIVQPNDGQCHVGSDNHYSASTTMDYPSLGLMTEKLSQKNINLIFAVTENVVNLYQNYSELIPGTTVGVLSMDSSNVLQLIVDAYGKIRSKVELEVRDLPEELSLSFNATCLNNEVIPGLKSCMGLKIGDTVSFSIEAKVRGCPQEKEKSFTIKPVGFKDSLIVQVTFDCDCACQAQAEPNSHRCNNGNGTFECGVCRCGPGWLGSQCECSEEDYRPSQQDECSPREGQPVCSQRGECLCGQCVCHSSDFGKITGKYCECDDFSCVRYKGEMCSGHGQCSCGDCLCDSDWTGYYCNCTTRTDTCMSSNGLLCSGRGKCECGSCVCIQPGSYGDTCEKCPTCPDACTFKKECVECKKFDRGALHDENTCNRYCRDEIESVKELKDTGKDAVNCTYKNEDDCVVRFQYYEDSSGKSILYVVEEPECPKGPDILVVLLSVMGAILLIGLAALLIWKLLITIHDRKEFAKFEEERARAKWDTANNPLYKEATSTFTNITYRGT

## Mab HU177: antibody specifically directed to denatured forms of collagen, cryptic CPGFPGFC (SEQ ID NO: 16) epitope
ID8-VEGF ovarian tumors; 100 μg per mouse subcutaneously twice a week from week 4, ascites at 12 weeks
  mean % Treg cells in the ascites fluid: significant decrease
ID8-VEGF ovarian tumors; 100 μg/mouse subcutaneously twice a week from week 4, ascites at 12 weeks
  mean percentage of CD8+ T-cells in the ascites fluid: significant increase
Hut78 T-cells; denatured collagen type-IV, fab fragments, compared to control antibody
  Hut78 T-cell migration: significantly enhanced
Activated fibroblasts
  activated fibroblast migration and accumulation within tumors in vivo: inhibits
tumor
  anti-tumor efficacy of an immune checkpoint inhibitor (anti-PDL-1) in vivo: enhance the therapeutic activity

## CQGPGGAAGGC [CP, reference compound]
Hut78 T-cells; native collagen type-IV, peptide, absence of SDF-1
  Hut78 T-cell migration: nor the non-specific control peptide had any significant effect

## KGDRGDAPG (CKGDRGDAPGC; Synthetic: Synthetic collagen RGD containing peptide P-1) [synthetic collagen RGD peptide, Colla1 742-750]
αvβ3
  binding to αvβ3: bound
